Source: publication PMC7324897 (Dose-Response, 2020)
“Also recorded” adds a separate entry of the source.

Assays:
BChE (from human serum) = BChE (from human serum) (Homo sapiens, UniProt P06276); experiment: In vitro cholinesterase inhibition assay; assay type: biochemical
BChE = BChE (Homo sapiens, UniProt P06276); experiment: Kinetic study of BChE inhibition; assay type: biochemical
Sequence of BChE (P06276 29-602): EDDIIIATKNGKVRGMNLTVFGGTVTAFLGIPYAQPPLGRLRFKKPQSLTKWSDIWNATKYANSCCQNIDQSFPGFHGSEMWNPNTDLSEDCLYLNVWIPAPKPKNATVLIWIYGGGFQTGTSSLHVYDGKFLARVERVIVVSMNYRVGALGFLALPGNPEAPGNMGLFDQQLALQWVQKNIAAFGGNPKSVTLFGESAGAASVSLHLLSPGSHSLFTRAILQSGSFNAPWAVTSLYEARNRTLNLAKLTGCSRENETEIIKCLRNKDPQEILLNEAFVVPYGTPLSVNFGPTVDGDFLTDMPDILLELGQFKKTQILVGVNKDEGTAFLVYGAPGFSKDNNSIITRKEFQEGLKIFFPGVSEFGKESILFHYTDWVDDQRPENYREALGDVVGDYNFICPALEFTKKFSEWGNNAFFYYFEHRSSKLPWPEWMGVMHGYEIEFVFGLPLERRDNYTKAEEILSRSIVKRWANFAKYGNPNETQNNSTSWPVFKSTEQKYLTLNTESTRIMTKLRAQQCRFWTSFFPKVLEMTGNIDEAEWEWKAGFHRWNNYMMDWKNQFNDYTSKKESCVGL

Sequence of BChE (from human serum) (P06276 29-602): as above

For `O=C1CN(C(=O)CCn2ccnc2)CC(O)CN1CCc1ccccc1` (centres unmarked) [Compound 5, 4-(3-(1H-imidazol-1-yl)propanoyl)-6-hydroxy-1-phenethyl-1,4-diazepan-2-one], the IC50 (BChE (from human serum)) was 1400 nM, the inhibition at 10 µM (BChE (from human serum); read-out: BChE IR (%), inhibition ratio) was 66% and the Ki (BChE) was 540 ± 70 nM. For the same compound, the “Type of BChE inhibition” value (BChE) was “mixed-type inhibitor; also recorded: mixed-type inhibition” and the “Inhibition constant Ki, uncompetitive part (Kiu)” value (BChE; substrate BTC 90-904 μM) was 2900 ± 1000 nM.
